Source: ChEMBL document CHEMBL3352792, “Fragment based search for small molecule inhibitors of HIV-1 Tat-TAR” (Bioorg Med Chem Lett, 2014)
Structures can show the parent of a compound that is named as a salt. Activity calls are given as the source filed them. No cut-off for these calls is given here.

Assays:
Nucleic Acid [1] = assay: Binding affinity to HIV-1 TAR RNA by Tat-TAR fluorimetric competition assay; assay type: nucleic-acid assay, Human immunodeficiency virus 1
Nucleic Acid [2] = assay: Binding affinity to HIV-1 TAR RNA at 0.4 mM by 1H NMR titration method; assay type: nucleic-acid assay; settings: Human immunodeficiency virus 1
Nucleic Acid [3] = assay: Binding affinity to HIV-1 TAR RNA using 2 equivalents of compound by 1H NMR titration method; assay type: nucleic-acid assay; settings: Human immunodeficiency virus 1

Row | IC50 (Nucleic Acid [1]) [µM] | Activity (Nucleic Acid [2]) | Activity (Nucleic Acid [3]) | Compound
1 | 45 | – | – | CN(C)c1ccc2nc(N)nc(N)c2c1
2 | 50 | – | – | Nc1nc(N)c2c(N)c(N)ccc2n1
3 | 150 | Active | – | Nc1ccc2ccnc(N)c2c1
4 | > 11000 | – | – | Nc1nc2ccccc2[nH]1
5 | 50 | – | – | NC1=Nc2cccc3cccc(c23)N1
6 | 750 | – | – | Nc1nccc2ccc(O)cc12
7 | > 20000 | – | – | N=C(N)NCc1ccccc1
8 | > 20000 | – | – | Nc1ncccn1
9 | 40 | – | Active | Nc1ccc2nc(N)nc(N)c2c1 [QUINAZOLINE-2,4,6-TRIAMINE]
10 | 70 | – | – | NCc1ccc2nc(N)nc(N)c2c1
11 | > 10000 | – | – | NC1=Nc2ccccc2CN1
12 | 700 | – | – | Nc1cccc2c(N)nccc12
13 | 50 | – | – | CNC1=Nc2cccc3cccc(c23)N1
14 | > 20000 | – | – | Nc1nc2ccccc2c(=O)[nH]1
15 | 2000 | – | – | Nc1ccc2ccncc2c1
16 | 130 | – | – | CN(C)c1nc(N(C)C)c2cc(N)ccc2n1
17 | 150 | – | – | CN(C)C1=Nc2cccc3cccc(c23)N1
18 | 400 | – | – | Nc1nc(N)c2ccccc2n1
19 | 110 | – | – | Nc1ccc2c(N)nc(N)nc2c1
20 | 50 | – | – | Nc1nc(N)c2cc(NCc3ccccc3)ccc2n1
21 | > 20000 | – | – | N=C(N)Nc1ccccc1
22 | > 2000 | – | – | Nc1ncc[nH]1
23 | > 20000 | – | – | N=C(N)N [GUANIDINE HYDROCHLORIDE]
24 | 2000 | – | – | Cc1ccc2nc(N)nc(N)c2c1
25 | 50 | – | – | NCc1cnc2nc(N)nc(N)c2n1

Row | Compound | IC50 (Nucleic Acid [1]) [µM] | Activity (Nucleic Acid [2]) | Activity (Nucleic Acid [3])
26 | Nc1nc(N)c2cc(CN3CCNCC3)ccc2n1 | 60 | – | –
27 | c1ccc(CNC2=NCCN2)cc1 | > 20000 | – | –
28 | Nc1ccccn1 [2-AMINOPYRIDINE] | > 20000 | – | –
